ChEMBL document CHEMBL3860058, “Sterol-dependent membrane association of the marine sponge-derived bicyclic peptide Theonellamide A as examined by 1H NMR” (Bioorg Med Chem, 2016)
The source made the active and inactive calls. No cut-off for these calls is given here.

Experiments:
[1] = Cytotoxicity against mouse P388 cells; format: functional, cell-based
Aspergillus = experiment: Antifungal activity against Aspergillus assessed as growth inhibition using alamar blue staining measured after 14 to 16 hrs by microdilution assay; format: functional
[2] = Antifungal activity against wild-type Candida albicans ATCC 32354 assessed as growth inhibition using alamar blue staining measured after 14 to 16 hrs by microdilution assay; format: functional
[3] = Antifungal activity against Trichophyton assessed as growth inhibition using alamar blue staining measured after 14 to 16 hrs by microdilution assay; format: functional
[4] = Binding affinity to DMPC-d54/DHPC-d22 bicelles assessed as […] measured at ratio of 4:10 Mn2+ to compound by 1H NMR spectroscopy relative to control
[5] = Binding affinity to cholesterol containing DMPC-d54/DHPC-d22 bicelles assessed as broadening of aromatic/olefinic signals at 6.5 to 7.6 ppm measured at 200 uM by 1H NMR spectroscopy
[6] = Binding affinity to cholesterol containing DMPC-d54/DHPC-d22 bicelles assessed as […] measured at ratio of 4:10 Mn2+ to compound by 1H NMR spectroscopy relative to control
[7] = Binding affinity to cholesterol containing POPC large unilamellar vescicle in pH 7.4 phosphate buffer by SPR analysis
[8] = Binding affinity to cholesterol containing DMPC-d54/DHPC-d22 bicelles assessed as […] measured at ratio of 1:10 Mn2+ to compound by 1H NMR spectroscopy relative to control
[9] = Induction of membrane damage in POPC/cholesterol GUV model assessed as membrane curvature at 20 uM after 13 to 55 mins by TNM-DCCH staining based confocal microscopic analysis
Lipid bilayer = experiment: Binding affinity to POPC large unilamellar vesicle in pH 7.4 phosphate buffer by SPR analysis
[10] = Aqueous diffusion coefficient of compound in 98:2 ratio of D2O/H2O solvent system at 25 degC by 1H NMR DOSY spectroscopy; format: physicochemical; conditions: buffer
[11] = Diffusion coefficient of the compound D2O at 11 mM and 25 degC by 1H NMR spectroscopy; format: physicochemical; conditions: 11000 µM

Row | D [10] | D [11] | SMILES | IC50 [1] | IC50 (Aspergillus) | IC50 [2] | IC50 [3] | Ratio [4] | Activity [5] | Ratio [6] | Kd [7] | Ratio [8] | Activity [9] | Kd (Lipid bilayer)
1 | – | – | CC(/C=C/c1ccc(Br)cc1)=C\[C@H](O)[C@@H]1CC(=O)N[C@@H](CO)C(=O)N[C@@H]2Cn3cc([n+]([C@@H]4O[C@H](CO)[C@H](O)[C@H](O)[C@H]4O)c3)C[C@H](NC(=O)C[C@H](O)C[C@@H](C(=O)[O-])NC(=O)CCNC(=O)[C@H](Cc3ccc(Br)cc3)NC(=O)[C@H]([C@@H](O)C(N)=O)NC(=O)[C@H](CC(N)=O)NC2=O)C(=O)N[C@@H]([C@H](C)O)C(=O)N[C@@H](CO)C(=O)N[C@@H](Cc2ccccc2)C(=O)N1 | 500 to 2800 nM | 2 to 7 µM | 2 to 7 µM | 2 to 7 µM | – | – | – | – | – | – | –
2 | – | – | CC(/C=C/c1ccc(Br)cc1)=C\[C@H](O)[C@@H]1CC(=O)N[C@@H](CO)C(=O)N[C@@H]2C[n+]3c[nH]c(c3)C[C@H](NC(=O)C[C@H](O)C[C@@H](C(=O)[O-])NC(=O)[C@@H](O)CNC(=O)[C@H]([C@@H](C)c3ccc(Br)cc3)NC(=O)[C@H]([C@@H](O)C(N)=O)NC(=O)[C@H](CC(N)=O)NC2=O)C(=O)N[C@@H]([C@H](C)O)C(=O)N[C@@H](CO)C(=O)N[C@@H](Cc2ccccc2)C(=O)N1 | 500 to 2800 nM | 2 to 7 µM | 2 to 7 µM | 2 to 7 µM | – | – | – | – | – | – | –
3 | – | – | CC(/C=C/c1ccccc1)=C\[C@H](O)[C@@H]1CC(=O)N[C@@H](CO)C(=O)N[C@@H]2Cn3cc([n+]([C@@H]4O[C@H](CO)[C@H](O)[C@H](O)[C@H]4O)c3)C[C@H](NC(=O)C[C@H](O)C[C@@H](C(=O)[O-])NC(=O)[C@@H](O)CNC(=O)[C@H]([C@@H](C)c3ccc(Br)cc3)NC(=O)[C@H]([C@@H](O)C(N)=O)NC(=O)[C@H](CC(N)=O)NC2=O)C(=O)N[C@@H]([C@H](C)O)C(=O)N[C@@H](CO)C(=O)N[C@@H](Cc2ccccc2)C(=O)N1 | 500 to 2800 nM | 2 to 7 µM | 2 to 7 µM | 2 to 7 µM | 0.36 to 0.46 | Active | 0.54 to 0.61 | 9.2 µM | 0.85 | Active | 420 µM
4 | – | – | CC(/C=C/c1ccc(Br)cc1)=C\[C@H](O)[C@@H]1CC(=O)N[C@@H](CO)C(=O)N[C@@H]2C[n+]3c[nH]c(c3)C[C@H](NC(=O)C[C@H](O)C[C@@H](C(=O)[O-])NC(=O)CCNC(=O)[C@H](Cc3ccccc3)NC(=O)[C@H]([C@@H](O)C(N)=O)NC(=O)[C@H](CC(N)=O)NC2=O)C(=O)N[C@@H]([C@H](C)O)C(=O)N[C@@H](CO)C(=O)N[C@@H](Cc2ccccc2)C(=O)N1 | 500 to 2800 nM | 2 to 7 µM | 2 to 7 µM | 2 to 7 µM | – | – | – | – | – | – | –
5 | – | – | CC(/C=C/c1ccc(Br)cc1)=C\[C@H](O)[C@@H]1CC(=O)N[C@@H](CO)C(=O)N[C@@H]2C[n+]3c[nH]c(c3)C[C@H](NC(=O)C[C@H](O)C[C@@H](C(=O)[O-])NC(=O)CCNC(=O)[C@H](Cc3ccc(Br)cc3)NC(=O)[C@H]([C@@H](O)C(N)=O)NC(=O)[C@H](CC(N)=O)NC2=O)C(=O)N[C@@H]([C@H](C)O)C(=O)N[C@@H](CO)C(=O)N[C@@H](Cc2ccccc2)C(=O)N1 | 500 to 2800 nM | 2 to 7 µM | 2 to 7 µM | 2 to 7 µM | – | – | – | – | – | – | –
6 | – | – | CC(/C=C/c1ccc(Br)cc1)=C\[C@H](O)[C@@H]1CC(=O)N[C@@H](CO)C(=O)N[C@@H]2Cn3cc([n+]([C@H]4OC[C@H](O)[C@H](O)[C@H]4O)c3)C[C@H](NC(=O)C[C@H](O)C[C@@H](C(=O)[O-])NC(=O)CCNC(=O)[C@H](Cc3ccc(Br)cc3)NC(=O)[C@H]([C@@H](O)C(N)=O)NC(=O)[C@H](CC(N)=O)NC2=O)C(=O)N[C@@H]([C@H](C)O)C(=O)N[C@@H](CO)C(=O)N[C@@H](Cc2ccccc2)C(=O)N1 | 500 to 2800 nM | 2 to 7 µM | 2 to 7 µM | 2 to 7 µM | – | – | – | – | – | – | –
7 | 2.63 ×10⁻¹⁰ m2/s | 2.64 ×10⁻¹⁰ m2/s | OC[C@H]1O[C@@H]2O[C@H]3[C@H](O)[C@@H](O)[C@@H](O[C@H]4[C@H](O)[C@@H](O)[C@@H](O[C@H]5[C@H](O)[C@@H](O)[C@@H](O[C@H]6[C@H](O)[C@@H](O)[C@@H](O[C@H]7[C@H](O)[C@@H](O)[C@@H](O[C@H]8[C@H](O)[C@@H](O)[C@@H](O[C@H]1[C@H](O)[C@H]2O)O[C@@H]8CO)O[C@@H]7CO)O[C@@H]6CO)O[C@@H]5CO)O[C@@H]4CO)O[C@@H]3CO [BETADEX] | – | – | – | – | – | – | – | – | – | – | –
